Laboratory results reported in article PMC3026800, “Mechanism of Inhibition of Enveloped Virus Membrane Fusion by the Antiviral Drug Arbidol” (PLoS ONE, 2011).
“And” between values parts separate entries of the source, which are not always exact repeats. Equal entries are not always repeated. Where two headings read alike, the source gives them in different places.

How the values were obtained:
HCVpp [1] = assay: microbe, parasite or virus in culture; assay type: cell-based, hepatitis C virus; details: for inhibition at 11.3 µM: Hepatitis C virus, Huh-7, 6 h, read-out: Inhibition of HCVpp cell entry; for Effect on HCVpp cell entry: 11.3 µM Arb, 6 h, Huh-7 cells
[2] = system: Rd114pp (envelope glycoprotein of the RD114 feline oncovirus); assay type: cell-based; details: 11.3 µM arbidol; control pseudoparticles
[3] = Indole fluorescence quenching of tryptophan derivative in solution; assay type: binding; details: NATA in solution
Procedure: (§1) Measurements were recorded on a Tecan Infinite® M1000 spectrofluorimeter.

[4] = Indole fluorescence quenching of tryptophan derivative in micelles or liposomes; assay type: binding
Procedure: as §1

[5] = target: T1, HCV NS4A[1–22]* transmembrane peptide (Hepatitis C virus genotype 1a, UniProt P27958); assay: Trp fluorescence quenching of peptide in PC:chol liposomes; assay type: binding; details: peptide in PC∶chol liposomes (1∶20)
T1 construct: HCV NS4A[1–22]* transmembrane peptide […]
Procedure: as §1

[6] = target: Trp residues of model membrane-binding peptides (HCV NS4A and BVDV NS5A); assay: Trp fluorescence quenching, model membrane peptides taken together; details: HCV NS4A and BVDV NS5A peptides in PC∶chol liposomes, both pH, summary; read-out: Apparent KD toward peptide Trp
Procedure: as §1

E2[415–432] peptide = E2[415–432] peptide (Hepatitis C virus genotype 1a, UniProt P27958); assay: Trp fluorescence quenching of fusion-related peptide in PC:chol liposomes; assay type: binding, HCV strain H (genotype 1a); details: peptide in PC∶chol liposomes (1∶20)
Procedure: as §1

E2[606–625] peptide = E2[606–625] peptide (Hepatitis C virus genotype 1a, UniProt P27958); assay: as above; assay type: binding, HCV strain H (genotype 1a); details: peptide in PC∶chol liposomes (1∶20)
Procedure: as §1

Solubility of Arb = assay type: physicochemical
[7] = Free Arb in Arb∶DMPC mixture by ultrafiltration; assay type: physicochemical; details: Arb∶DMPC molar ratio 1∶4, neutral pH, ultrafiltration cutoff 5000 Da
[8] = cited from earlier work
[9] = Surface plasmon resonance binding to immobilized DMPC liposomes (L1 chip)
Procedure: The running buffer was milliQ water. The influence of liposome concentrations on the final SPR signal was tested; we assayed lipid concentrations from 0.5 to 5 mM and measured the resulting resonance units (RU). […] We therefore chose the 2 mM concentration for our experiments. DMPC liposomes were resuspended in milliQ water and captured on sensor chip at 2 µl/min for 5 min. The flow rate was increased to 30 µl/min and the liposome surface was then washed with 10 mM NaOH for 1 min. Liposomes immobilized on the chip surface gave approx. a 5000 RU signal. […] After each binding cycle, the sensor surface was regenerated to the original matrix by injecting 50 mM NaOH/isopropanol (6∶4, v∶v). The sensor surface was then coated with a fresh liposome suspension for the next binding cycle. KD values were calculated from the equilibrium resonance signal (Req) as a function of the analyte concentration. Req values were estimated by extrapolation to infinite time using plots of resonance signal as a function of the reciprocal of time. Apparent KD were then calculated by nonlinear fitting to the expression Req = RmaxC/(KD+C), where Rmax is the maximum binding capacity of the surface and C is the analyte concentration, using the SigmaPlot software.

HCVpp [10] = assay: Membrane fusion assay: lipid mixing between pseudoparticles and R18-labeled liposomes; details: pH 5.0
Procedure: Lipid mixing between pseudoparticles and PC∶chol∶R18 liposomes was monitored by fluorescent spectroscopy, as the dequenching of R18 [18]. In brief, R18-labeled liposomes (1 µl, 12.5 µM final lipid concentration) were added to a 37°C-thermostated cuvette containing pseudoparticles in PBS pH 7.4 [viral titers: H77 (1a) 5.10e^5; W529A-HC 10e^2; Con1 (1b) 4.10e^4; JFH1 (2a) 5.10e^4; AY734983 (2b) 8.10e^4; AY734984 (3a) 3.10e^4; AY734987 (4a) 9.10e^4; AY785283 (5a) 3.10e^4; AY736194 (6a) 5.10e^3; HA 8.10e^8; Rd114 2.10e^6], and incubated 2 min. Fusion was initiated by acidification to pH 5 with HCl, and recorded on an SLM Aminco 8000 spectrofluorimeter over a 10-min time period, at excitation and emission wavelengths of 560 nm and 590 nm, respectively. Maximal R18 dequenching was measured after the addition of 0.1% Triton X-100 (final concentration) to the cuvette to lyse liposomes.

CCOC(=O)c1c(CSc2ccccc2)n(C)c2cc(Br)c(O)c(CN(C)C)c12.Cl [Arb, 1H-indole-3-carboxylic acid, 6-bromo-4-[(dimethylamino)-methyl]-5-hydroxy-1-methyl-2-[(phenylthio)methyl]-, ethyl ester, monohydrochloride]
inhibition at 11.3 µM (HCVpp [1]; genotype 1a): 40% | inhibition at 11.3 µM (HCVpp [1]; genotype 1b): 40% | inhibition at 11.3 µM (HCVpp [1]; genotype 2a): ~60% | inhibition at 11.3 µM (HCVpp [1]; genotype 2b): 40% | inhibition at 11.3 µM (HCVpp [1]; genotype 3a): ~60% | Effect on HCVpp cell entry (HCVpp [1]; genotype 5a): weakly affected | Effect on HCVpp cell entry (HCVpp [1]; genotype 6a): weakly affected | Sensitivity of pseudoparticle entry to arbidol [2]: insensitive | Kd ([3]; pH 5.0): 55 ± 10 µM | Kd ([3]; pH 7.4): 64 ± 10 µM | Kd ([4]; TOE associated to liposomes (1∶20), summary, read-out: KD (apparent affinity)): ~10 µM | Kd ([4]; TOE in PC liposomes (1∶20), pH 5.0, read-out: KD): 9.2 ± 0.2 µM | Kd ([4]; TOE in PC liposomes (1∶20), pH 7.4, read-out: KD): 6 ± 0.5 µM | Kd ([4]; TOE in PC∶chol liposomes (1∶20), pH 5.0, read-out: KD): 15.6 ± 1.3 µM | Kd ([4]; TOE in PC∶chol liposomes (1∶20), pH 7.4, read-out: KD): 11.7 ± 1.4 µM | Kd ([4]; TOE in lyso-PC micelles (1∶800), pH 5.0, read-out: KD): 48 ± 4 µM | Kd ([4]; TOE in lyso-PC micelles (1∶800), pH 7.4, read-out: KD): 58 ± 9 µM | Kd ([5]; pH 5.0): 5.6 ± 0.3 µM | Kd ([5]; pH 7.4): 3.3 ± 0.6 µM | Kd [6]: ~4 µM | Kd (E2[415–432] peptide; pH 5.0): 28 ± 7 µM | Kd (E2[415–432] peptide; pH 7.4): ~15 µM and 15 µM | Kd (E2[606–625] peptide; pH 5.0): 70 ± 10 µM | Kd (E2[606–625] peptide; pH 7.4): 13 ± 3 µM | Solubility (Solubility of Arb; ethanol): readily soluble | Solubility (Solubility of Arb; water): soluble in the mM range | Free Arb [7]: < 0.2% | Toxicity [8]: low toxicity | Arb remaining bound to DMPC after dissociation ([9]; all Arb concentrations tested (0.5 to 11.3 µM)): about 50% | Kd ([9]; read-out: Apparent KD for DMPC, SPR, 30°C, water, Req extrapolated to infinite time, 4 separate experiments): 6.8 ± 0.4 µM | Inhibition of membrane fusion activity (HCVpp [10]; all tested genotypes, 11.3 µM Arb): about 50% | IC50 (HCVpp [10]; read-out: IC50 of HCVpp fusion, lipid mixing with R18 liposomes): 11.3 µM and ~10 µM
